Experimental data as given in patent US6235791A, “Use of amines to produce drugs for preventing tumor cell proliferation” (Sanofi-Synthelabo, priority 1996, dated 2001).

Experiments:
[1] = system: human mammary carcinoma MCF-7; assay: MTT colorimetric proliferation test, 5 days; type: cell-based; details: MCF7, 120 h, read-out: percentage of cell proliferation relative to the untreated control taken as 100%
Method: Among other cells used, the following lines were routinely cultured in RPMI medium supplemented with 10% foetal calf serum (FCS):
human mammary carcinoma MCF-7
The antitumour activity is measured according to the colorimetry method using MTT, 3-(4,5-dimethylthiazole-2,5-diphenyltetrazolium) bromide as described by Mosmann T., Journ. of Im. Methods; 1983, 65, 55.
This colorimetric assay makes it possible to measure quantitatively the antitumour activity of a solution containing a compound used according to the invention.
According to the procedure used, the suspended cells (such as the myeloma cells) are inoculated at 2×10^3 cells/ml in 1 ml wells in defined medium. The adherent cells (such as the MCF-7 cells) are inoculated at 5×10^4 cells/ml in 1 ml wells in RPMI medium+0.5% FCS overnight. The next day, the cell carpet is washed twice and replaced by the defined medium.
The defined medium corresponds to: RPMI+10 μg/ml insulin+10 μg/ml human transferrin.
In order to carry out this test, cells are maintained in the presence of the solution containing a compound used according to the invention for 5 days, and the MTT is then added to the culture medium.
The 5 day period which was selected corresponds to the optimum time for the activity. After culturing for 5 days, the proliferation of the cells is measured by the test described above. The optical density at 570 nm is measured. A blue coloration develops in the wells where the cells are still alive. The intensity of the coloration is proportional to the quantity of live cells.

[2] = system: MCF7 AZTD5; assay: proliferation of mammary epithelial cells, IC50 after 6 days; type: cell-based; details: Homo sapiens, MCF7, 144 h, 6 days of treatment
Method: (§1) Another study was also performed in order to determine the effect of SR 31747 on the in vitro and in vivo growth of mammary and prostate epithelial tumour cells.
(§2) The study consisted in evaluating the potential antitumour activity of SR 31747 on the growth of a variety of cancerous breast epithelial lines. The study is carried out in vitro on cell cultures, as well as in vivo after inoculation of tumoral mammary lines in "nude" athymic mice.
(§3) The cell lines which were used are as follows:
(§4) The hormone-sensitive MCF-7 line originates from a pleural effusion of a breast adenocarcinoma. The antioestrogen-resistant MCF-7LY2 cells were obtained from the MCF-7LCC1 and MCF-7LCC2 lines were developed in nude mice, after inoculation of the MCF-7 cells. The two lines are oestrogen-independent. The MCF-7CC2 cells are also antioestrogen-resistant. The MCF-7AZTD5 line is derived from the MCF-7 line after stable transfection with the H-ras oncogene. The MCF-7AZTD5 cells are antioestrogen-resistant in vitro. All of these lines are maintained on DMEM/F12 (1/1, vol/vol) containing 10% decomplemented foetal calf serum and 16 ng/ml of human insulin. The MCF-7LCC2 line is cultured in the permanent presence of 10^-7 M hydroxytamoxifen. The MDA-MB231 tumoral mammary epithelial cells are oestrogen- and antioestrogen-insensitive. They are cultured in L15 medium supplemented with 10% FCS, 1% essential amino acids and 10 μg/ml of human insulin.
(§5) All the lines are maintained at 37° C. in a humid air/CO2 (95%/5%) atmosphere, except for the MDA-MB231 cells which are cultured in the absence of CO2. THe cell lines are checked regularly free of mycoplasms.
(§6) Table B--Effect of SR 31747 on the proliferation of mammary epithelial cells. Determination of the IC50 after 6 days of treatment--medium changed every 48 hours

[3] = system: MCF7 p23-25; assay: as above; type: cell-based; details: Homo sapiens, MCF7, 144 h, 6 days of treatment
Method: as §1, §2, §3, §4, §5, §6

[4] = system: SN 47 p4 normal cells; assay: as above; type: cell-based; details: Epithelial cell, 144 h, 6 days of treatment
Method: as §1, §2, §6

[5] = system: MCF7 + E2 10-9M; assay: proliferation of mammary epithelial cells, IC50 after 6 days, with oestradiol; type: cell-based, human; details: for IC50: MCF7 + E2 10^-9M, 0.5% FCS, 6 days of treatment
Method: as §1, §2, §3, §4, §5, §6

[6] = system: mammary tumoral epithelial cells; assay: proliferation of tumoral breast epithelial lines, summary statements; type: cell-based
Method: as §1, §2, §3
as §4, with “They are cultured in L15 medium supplemented with 10% FCS, 1% essential amino acids and 10 μg/ml of human insulin.” left out

[7] = system: MDA-MB231 cells; assay: tumours developed in ovariectomized nude mice from MDA-MB231 cells; type: in vivo; details: 500 μg SR 31747 + E2 daily intraperitoneally, to day 92
Method: The inoculation and treatment of the animals were carried out as follows:
The animals used are "nude" female athymic mice, which may or may not have been ovariectomized, obtained at 4 weeks old (R. Janvier). Before inoculating the hormone-sensitive mammary cells (MCF-7, MCF-7AZTD5), the animals receive 10 μl pf ethanolic 10 ^-5 oestradiol solution applied percutaneously. The treatment is repeated three times over one week. One million cells suspended in 100 μl of PBS/Ca are inoculated subcutaneously above each of the hips. The following day, the animals receive 200 μl of injection solution (ethanol/Tween 80/physiological saline, 1/1/18, vol/vol) containing the various reactions at the predefined concentrations. The injections are made intraperitoneally and are repeated every day.
FIGS. 1 and 2 indicate the effect of SR 31747 on tumours developed in ovariectomized "nude" mice from MDA-MB231 cells.
Each mouse receives 5×10^6 MDA-MB231 cells above each hip (i.e. 2 points of inoculation per mouse). The animals are then treated daily via the intraperitoneal route and receive 500 μg SR 31747+0.003 μg E2 (20 mice). The control batch receives 0.0003 μg E2 (20 mice). The amount (as a percentage of inoculated tumours) and size of the tumours developed are determined at different times in the course of the treatment. At the end of the treatment (day 92), the animals are sacrificed and weighed. […]

CCN(C/C=C\c1ccc(C2CCCCC2)c(Cl)c1)C1CCCCC1 [SR 31747, cis-N-Cyclohexyl-N-ethyl [3-(3-chloro-4-cyclo-hexylphenyl)allyl]amine]
activity at 10 pM ([1]; MCF-7, 10 pM): 100%
activity at 0.0001 µM ([1]; MCF-7, 100 pM): 100%
activity at 0.001 µM ([1]; MCF-7, 1 nM): 83%
activity at 0.01 µM ([1]; MCF-7, 10 nM): 75%
activity at 0.1 µM ([1]; MCF-7, 100 nM): 58%
activity at 1 µM ([1]; MCF-7, 1 μM): 34%
activity at 10 µM ([1]; MCF-7, 10 μM): 5%
IC50 ([2]; MCF7 AZTD5, 0.1% FCS): 0.2 nM
IC50 ([2]; MCF7 AZTD5, 10% FCS): 600 nM
IC50 ([3]; MCF7 p23-25, 0.1% FCS): 2 nM
IC50 ([3]; MCF7 p23-25, 0.5% FCS): 100 nM
IC50 ([4]; 0.5% FCS): 400 nM
IC50 ([4]; 10% FCS): > 10000 nM
IC50 ([5]; Homo sapiens, MCF7, 144 h): 400 nM
IC50 [5]: 300 nM
reversal of the stimulatory action of oestradiol ([5]; hormone-sensitive MCF-7 line): incapable of reversing the stimulatory action of oestradiol
inhibition of cell proliferation at high concentration (cytotoxic effects) ([6]; 10^-6 M and occasionally 10^-7 M SR 31747): virtually total inhibitions of the cell proliferation
action on the proliferation of tumor epithelial lines ([6]; reduced concentrations of saline (serum)): exerts an inhibitory action on the proliferation of all the tumor epithelial lines tested
size, weight and frequency of tumours developed [7]: tendency to reduce the size, weight and frequency of tumours
